Laboratory results from patent publication EP3698805A1, “FRACTION OFZANTHOXYLUM PIPERITUM” (Mecox Curemed Co., Ltd., priority 2017, dated 2019).
Values joined by “and” are separate entries in the source; they are usually repeats but may differ in a detail not shown here. Equal values may be shown once. Read-outs that look alike come from different tables or passages of the source.

Tests used:
[1] = tested on: pain response induced by formalin; experiment: formalin test; type: in vivo, rats; conditions: 100 mg/kg
Description: The formalin test is primarily used to measure the analgesic effects of drugs in chronic pain models, in which the pain stimulus and response are not temporary but persistent. The pain response induced by formalin includes phase 1 and phase 2, and these two phases can be distinguished pharmacologically. The test substance and acetaminophen or aspirin, as a positive control group, were orally administered 60 minutes before the induction of pain, 10% formalin was injected subcutaneously into the hind legs of rats, and the number of actions in response to pain was measured every 3 minutes. The action in response to pain was measured separately in phase 1 (0-12 minutes) and phase 2 (24-39 minutes).

mast cell RBL-2H3 = experiment: inhibition of mast cell degranulation (β-hexosaminidase secretion); type: cell-based; conditions: for inhibition at 25 µg/mL / inhibition at 100 µg/mL: Rattus norvegicus
Description: Inhibition of inflammation-promoting cytokines has been reported to inhibit autoimmune diseases such as atopy. Thus, in the present embodiment, the mast cell RBL-2H3 was treated with the Zanthoxylum piperitum leaf extract or active compounds (quercitrin, afzelin) to evaluate the secretion inhibition ability of β-hexosaminidase. That is, the effect of inhibiting mast cell degranulation by the Zanthoxylum piperitum leaf extract or the active compound (quercitrin, afzelin) was found.

[2] = tested on: acetic acid-induced pain model; experiment: acetic acid-induced pain model (writhing syndrome test); type: in vivo, ICR mice; conditions: for Pain inhibition percentage (%)(50 mg/kg, po): active ingredients; for pain inhibition effect: FIG. 3, compounds isolated from ZPE6A or ZPE6C fraction
Description: The acetic acid-induced writhing syndrome test is an animal model for determining analgesic effects. It is mainly used to test the effect of analgesics on the peripheral nervous system. The experimental animals used herein were 5-week-old ICR mice purchased from Central Laboratory Animals (Seoul) and acclimated in a breeding room maintained at a humidity of 50% and a temperature of 24 to 26°C for one week. Feed and water were supplied for free intake. […] The test substance was orally administered 60 minutes before the induction of pain to determine the degree of analgesic effect.

[3] = tested on: collagen-induced arthritis animal model; experiment: collagen-induced arthritis animal model (clinical score, micro-CT); type: in vivo, DBA/1J mice; set-up: scale not given here
Description: As one of the methods for evaluating the therapeutic effect of rheumatoid arthritis, the antirheumatic efficacy of each test substance was measured in a collagen-induced arthritis animal model. The experimental animals herein used were 5-week-old DBA/1J mice purchased from Central Laboratory Animals (Seoul) and acclimated in a breeding room maintained at a humidity of 50% and a temperature of 24 to 26°C for one week. Feed and water were supplied for free intake. In order to induce arthritis, type 2 collagen and CFA (complete Freund's adjuvant) were mixed to obtain an emulsion. 200 µL of the emulsion was injected subcutaneously […] into the lower part of the tail 2 to 3 cm away from the torso of DBA/1J mice, and the same amount of the emulsion was secondarily injected in […] into the lower part of the tail in the same manner as in the primary injection 21 days after exposure to a primary antigen. A positive control group was orally administered with dexamethasone at a dose of 1 mg/kg from the 22nd day after primary antigen exposure, the group administered with the Zanthoxylum piperitum leaf extract was orally treated at 100 mg/kg for 3 weeks, rheumatoid arthritis lesions were visually observed and graded, and the arthritis alleviation efficacy was measured as a clinical score.

[4] = RBL-2H3, read-out: degranulation inhibitory activity compared to the ketotifen drug
[5] = individual animals No. 1-7, extract 100 mg/kg oral 3 weeks, dexamethasone 1 mg/kg oral, listed as Positive control group

CC(=O)Nc1ccc(O)cc1 [Acetaminophen]
Inhibition (%) Phase 1 ([1]; phase 1 (0-12 minutes)): 35.2%
Inhibition (%) Phase 2 ([1]; phase 2 (24-39 minutes)): 41.7%

C[C@@H]1O[C@@H](Oc2c(-c3ccc(O)cc3)oc3cc(O)cc(O)c3c2=O)[C@H](O)[C@H](O)[C@H]1O [Afzelin, camphorol-3-O-alpha-L-rhamnoside]
inhibition at 25 µg/mL (mast cell RBL-2H3; RBL-2H3, treatment dose of 25 µg/mL, read-out: degranulation inhibitory activity compared to the ketotifen drug): ~195%
inhibition at 100 µg/mL (mast cell RBL-2H3; RBL-2H3, treatment dose of 100 µg/mL, read-out: degranulation inhibitory activity compared to the ketotifen drug): ~93%
Effect of inhibiting degranulation (% inhibition) (mast cell RBL-2H3; treatment amount 12.5 µg/mL): 25.1 ± 1.68 % inhibition
Effect of inhibiting degranulation (% inhibition) (mast cell RBL-2H3; treatment amount 25 µg/mL): 39.4 ± 1.06 % inhibition
Effect of inhibiting degranulation (% inhibition) (mast cell RBL-2H3; treatment amount 50 µg/mL): 41.3 ± 1.67 % inhibition
Effect of inhibiting degranulation (% inhibition) (mast cell RBL-2H3; treatment amount 100 µg/mL): 40.9 ± 0.98 % inhibition
Pain inhibition percentage (%)(50 mg/kg, po) [2]: 93.6%

CC(C)(C)c1ccc(O)c(C(C)(C)C)c1 [2,4-di-tert-butylphenol]
pain inhibition effect [2]: excellent pain inhibition effects

C[C@@H]1O[C@@H](Oc2c(-c3ccc(O)c(O)c3)oc3cc(O)cc(O)c3c2=O)[C@H](O)[C@H](O)[C@H]1O [Quercitrin, quercetin-3-O-alpha-L-rhamnoside]
inhibition at 25 µg/mL (mast cell RBL-2H3; [4]): ~70%
inhibition at 100 µg/mL (mast cell RBL-2H3; [4]): ~50%
Effect of inhibiting degranulation (% inhibition) (mast cell RBL-2H3; treatment amount 12.5 µg/mL): 6.3 ± 0.13 % inhibition
Effect of inhibiting degranulation (% inhibition) (mast cell RBL-2H3; treatment amount 25 µg/mL): 14.3 ± 0.11 % inhibition
Effect of inhibiting degranulation (% inhibition) (mast cell RBL-2H3; treatment amount 50 µg/mL): 19.8 ± 0.28 % inhibition
Effect of inhibiting degranulation (% inhibition) (mast cell RBL-2H3; treatment amount 100 µg/mL): 22.2 ± 0.32 % inhibition
Pain inhibition percentage (%)(50 mg/kg, po) [2]: 69.2%

O=C(O)c1ccccc1C(=O)O [1,2-benzenedicarboxylic acid]
pain inhibition effect [2]: excellent pain inhibition effects

CC(=O)c1ccc(O)cc1 [4'-hydroxyacetophenone]
pain inhibition effect [2]: excellent pain inhibition effects

C[C@@H]1C[C@H]2[C@@H]3CCC4=CC(=O)C=C[C@]4(C)[C@@]3(F)[C@@H](O)C[C@]2(C)[C@@]1(O)C(=O)CO [dexamethasone]
average score ([3]; group mean of total clinical score, control group 11.8): 6.3
visual clinical score Right back leg ([3]; individual animals No. 1-7, extract 100 mg/kg oral 3 weeks, dexamethasone 1 mg/kg oral): 1
visual clinical score Left back leg [3, 5]: 1 (5×) and 2 (2×)
visual clinical score Left front leg [3, 5]: 3 (2×) and 2 (3×) and 1 (2×)
visual clinical score Right front leg [3, 5]: 3 (2×) and 2 (3×) and 1 (2×)
visual clinical score Total [3, 5]: 8 and 7 (2×) and 6 (2×) and 5 (2×)

CN1CCC(=C2c3ccccc3CC(=O)c3sccc32)CC1 [Ketotifen]
Effect of inhibiting degranulation (% inhibition) (mast cell RBL-2H3; treatment amount 12.5 µg/mL): 13.8 ± 0.88 % inhibition
Effect of inhibiting degranulation (% inhibition) (mast cell RBL-2H3; treatment amount 25 µg/mL): 20.2 ± 0.84 % inhibition
Effect of inhibiting degranulation (% inhibition) (mast cell RBL-2H3; treatment amount 50 µg/mL): 32.8 ± 1.04 % inhibition
Effect of inhibiting degranulation (% inhibition) (mast cell RBL-2H3; treatment amount 100 µg/mL): 43.9 ± 1.45 % inhibition
